Test results from PMC8966664 (Frontiers in Pharmacology, 2022).

What was measured:
[1] = target: T1, CYP2B2 (Rattus norvegicus, UniProt P04167); parameters: method as in Otten et al., 2011; details: CYP enzyme 2B2; cocktail probe substrate parameter, source not stated; ref Otten et al., 2011; cited from earlier work
T1 construct: and 1 mg/ml rat liver microsomes; from tissue; host or cells: rat liver microsomes
T1 sequence (P04167 1-491): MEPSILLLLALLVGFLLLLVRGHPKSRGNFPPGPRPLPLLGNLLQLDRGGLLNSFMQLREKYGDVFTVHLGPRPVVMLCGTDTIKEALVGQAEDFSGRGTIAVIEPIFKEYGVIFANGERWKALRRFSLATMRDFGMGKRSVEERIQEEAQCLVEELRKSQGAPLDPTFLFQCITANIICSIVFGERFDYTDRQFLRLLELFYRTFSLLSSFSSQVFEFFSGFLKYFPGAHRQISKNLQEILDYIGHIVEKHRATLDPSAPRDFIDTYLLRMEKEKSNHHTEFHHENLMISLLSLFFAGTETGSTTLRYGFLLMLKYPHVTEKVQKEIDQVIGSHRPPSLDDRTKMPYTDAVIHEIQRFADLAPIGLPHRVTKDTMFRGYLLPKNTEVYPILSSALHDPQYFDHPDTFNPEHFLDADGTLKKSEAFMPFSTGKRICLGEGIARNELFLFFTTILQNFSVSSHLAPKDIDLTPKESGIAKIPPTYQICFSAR

[2] = target: T2, CYP2A2 (Rattus norvegicus, UniProt P15149); parameters: method as in Otten et al., 2011; details: CYP enzyme 2A2; cocktail probe substrate parameter, source not stated; ref Otten et al., 2011; cited from earlier work
T2 construct: and 1 mg/ml rat liver microsomes; from tissue; host or cells: rat liver microsomes

[3] = target: T3, CYP2D1 (Rattus norvegicus, UniProt P10633); parameters: method as in Otten et al., 2011; details: CYP enzyme 2D1; cocktail probe substrate parameter, source not stated; ref Otten et al., 2011; cited from earlier work
T3 construct: and 1 mg/ml rat liver microsomes; from tissue; host or cells: rat liver microsomes
T3 sequence (P10633 1-504): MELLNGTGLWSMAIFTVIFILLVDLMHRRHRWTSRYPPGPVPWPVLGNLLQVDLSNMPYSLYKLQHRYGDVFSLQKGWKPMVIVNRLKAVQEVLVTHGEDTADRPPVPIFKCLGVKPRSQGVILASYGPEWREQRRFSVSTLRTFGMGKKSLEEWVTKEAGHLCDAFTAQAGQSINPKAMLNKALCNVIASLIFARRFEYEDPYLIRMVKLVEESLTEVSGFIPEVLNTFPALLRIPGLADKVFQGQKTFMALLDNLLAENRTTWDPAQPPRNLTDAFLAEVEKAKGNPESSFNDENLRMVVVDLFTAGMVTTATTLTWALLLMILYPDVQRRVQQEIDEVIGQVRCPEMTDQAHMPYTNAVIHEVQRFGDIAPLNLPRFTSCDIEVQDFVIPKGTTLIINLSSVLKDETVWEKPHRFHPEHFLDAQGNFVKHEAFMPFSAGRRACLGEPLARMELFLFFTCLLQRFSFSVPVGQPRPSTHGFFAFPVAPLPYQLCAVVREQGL

[4] = tested on: bacterial ß-D-glucuronidase; parameters: method as in Takeda et al., 1996; details: gastrointestinal tract, after oral administration; ref Takeda et al., 1996; cited from earlier work
[5] = tested on: rat liver microsomes; experiment: Formation of 7,9-diGS-DHP from RTS in rat liver microsomes; format: biochemical; details: KCZ 25 µM; 1 mg/ml rat liver microsomes, 200 µM RTS
Procedure: The injection volume was 3 μL. […] The injection volume was 5 µL.

[6] = tested on: CYP1A2; details: CYP enzyme 1A2; cocktail probe substrate parameter, source not stated; ref Otten et al., 2011; cited from earlier work
[7] = target: T4, CYP2C11 (Rattus norvegicus, UniProt P08683); parameters: method as in Otten et al., 2011; details: CYP enzyme 2C11; cocktail probe substrate parameter, source not stated; ref Otten et al., 2011; cited from earlier work
T4 construct: and 1 mg/ml rat liver microsomes; from tissue; host or cells: rat liver microsomes
T4 sequence (P08683 1-500): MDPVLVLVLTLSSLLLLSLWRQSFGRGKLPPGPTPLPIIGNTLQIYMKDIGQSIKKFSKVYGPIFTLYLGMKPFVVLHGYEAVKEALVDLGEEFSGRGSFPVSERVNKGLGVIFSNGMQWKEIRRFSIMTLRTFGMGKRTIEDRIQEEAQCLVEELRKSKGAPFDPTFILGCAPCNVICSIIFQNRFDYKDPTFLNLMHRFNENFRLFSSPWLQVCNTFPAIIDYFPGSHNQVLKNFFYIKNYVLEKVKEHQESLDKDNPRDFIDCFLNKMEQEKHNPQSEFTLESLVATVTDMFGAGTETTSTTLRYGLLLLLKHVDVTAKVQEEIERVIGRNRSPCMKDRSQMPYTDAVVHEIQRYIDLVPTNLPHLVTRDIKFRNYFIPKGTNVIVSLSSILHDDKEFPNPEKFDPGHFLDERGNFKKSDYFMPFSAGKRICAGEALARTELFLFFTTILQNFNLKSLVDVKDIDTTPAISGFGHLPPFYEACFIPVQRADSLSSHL

T2 sequence (P15149 whole entry): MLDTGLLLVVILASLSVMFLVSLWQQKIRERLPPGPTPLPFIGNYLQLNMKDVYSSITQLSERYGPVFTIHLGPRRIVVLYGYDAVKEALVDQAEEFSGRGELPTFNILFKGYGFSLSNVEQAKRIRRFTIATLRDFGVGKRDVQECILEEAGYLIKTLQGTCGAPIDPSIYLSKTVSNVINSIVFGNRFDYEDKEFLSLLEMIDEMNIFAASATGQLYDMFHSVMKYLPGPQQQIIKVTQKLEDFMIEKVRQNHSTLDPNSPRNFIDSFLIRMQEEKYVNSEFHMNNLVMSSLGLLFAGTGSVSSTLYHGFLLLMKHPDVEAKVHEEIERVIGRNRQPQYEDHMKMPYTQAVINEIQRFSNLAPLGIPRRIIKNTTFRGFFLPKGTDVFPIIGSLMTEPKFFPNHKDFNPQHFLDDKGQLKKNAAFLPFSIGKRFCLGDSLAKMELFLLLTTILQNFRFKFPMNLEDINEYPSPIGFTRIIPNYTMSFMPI

SMILES: CC(NC(C)(C)C)C(=O)c1cccc(Cl)c1 (stereo not shown) [Bupropion]
- Km [1]: 67 to 168 µM

SMILES: O=c1ccc2ccccc2o1 [Coumarin]
- Km [2]: 0.3 to 2.3 µM

SMILES: COc1ccc2c(c1)[C@]13CCCC[C@@H]1[C@H](C2)N(C)CC3 [Dextromethorphan]
- Km [3]: 0.4 to 8.5 µM

SMILES: CC1(C)[C@@H](O[C@H]2O[C@H](C(=O)O)[C@@H](O)[C@H](O)[C@H]2O[C@@H]2O[C@H](C(=O)O)[C@@H](O)[C@H](O)[C@H]2O)CC[C@]2(C)[C@H]3C(=O)C=C4[C@@H]5C[C@@](C)(C(=O)O)CC[C@]5(C)CC[C@@]4(C)[C@]3(C)CC[C@@H]12 [GL, Glycyrrhizin]
- fraction of GL irreversibly transformed into 18β-GA [4]: ~100%

SMILES: CC(=O)N1CCN(c2ccc(OCC3COC(Cn4ccnc4)(c4ccc(Cl)cc4Cl)O3)cc2)CC1 (stereo not shown) [KCZ, ketoconazole]
- reduction of the formation of 7,9-diGS-DHP [5]: 62%

SMILES: CCOc1ccc(NC(C)=O)cc1 [Phenacetin]
- Km [6]: 1.7 to 152 µM

SMILES: CC[C@@]1(c2ccccc2)NC(=O)N(C)C1=O [S-Mephenytoin]
- Km [7]: 13 to 35 µM
